Measurements published in US20070225252A1, “Ketogenic Saccharides” (priority 2004, published 2007).

Experiment: Ketogenesis in rats in vivo (plasma (R)-3-hydroxybutyrate after oral gavage)
Design: species or system Male Sprague-Dawley rats
Settings: rat, ANOVA/Dunnett P<0.05
Procedure: Male Sprague-Dawley rats (weight range 200-250 g Charles River, Margate, Kent) were group housed in polypropylene cages at a temperature of 21±4° C. and 55±20% humidity and on a standard light/dark cycle. Animals had free access to a standard pelleted rat diet and tap water at all times. Animals were accustomed to these conditions for at least one week before experimentation.
Compounds were administered by oral gavage (po). Control animals received the appropriate vehicle via the same route. The experiment was performed over 2 days (ie 2 compounds were tested per day). Blood samples were taken by cardiac puncture after the animals were killed by a British Home Office Schedule 1 method. The terminal blood sample was collected into suitable plasma preparation tubes (EDTA-coated tubes). Plasma samples were initially frozen on dry ice and transferred to a −75° C. freezer until required for subsequent analysis (spectrophotometric analysis of (R)-3-hydroxybutyrate).
Sodium DL-β-hydroxybutyrate (H-6501 Lot 111K2618) was obtained from Sigma A stock solution of β-hydroxybutyrate (40 mM DL racemate equivalent to 20 mM D-isomer) was prepared in 0.9% saline solution, kept at 4° C. and used to generate appropriate dilutions for an assay standard curve.
Commercial clinical assay kits for the determination of D-β-hydroxybutyrate were obtained from Randox Laboratories (Antrim, UK). Kits were obtained in two pack sizes (Ranbut RB1007: 10×10 ml and RB1008: 10×50 ml) but were otherwise identical. […] The kit relies on measuring the appearance of NADH via the activity of β-hydroxybutyrate dehydrogenase measured as an increase of OD340 nm. […]
The protocol supplied with the Ranbut kits was for a discrete (cuvette-based) spectrophotometzic assay, so the protocol was modified for suitability with a 96-well microplate format using blank, flat-bottomed microplates (Greiner PS 655101 Lot 98 35 01). […] Standard dilutions and samples were pipetted a single plate at a time and preincubated at 37° C. for 15 minutes in the sample compartment of a Molecular Devices VERSAmax tunable microplate reader: The appropriate volume of assay reagent was reconstituted, according to instructions, using distilled water and preincubated at 37° C. for 15 minutes using a static water bath. […] The plate was reloaded, mixed and then the change in OD340 nm followed in kinetic mode with a reading at every 15 seconds for a total of 2 minutes. The reaction rate was then determined from the OD increase over a suitable 1 minute period, after allowing a necessary period for the reaction rate to settle. The rate between 45 seconds and 105 seconds was used as the default measuring period, though occasionally a different period was used as necessary (eg if an aberrant reading was obtained at one of these time-points). […]

For “arabinose (R)-3-hydroxybutyrate ester [KTX 0312]”, the “increases in plasma 3-hydroxybutyrate concentrations (ketogenesis)” value (“increases” below) (351 mg/kg po, blood sampling 30, 120, 240 min vs vehicle) was “did not evoke significant ketogenesis”.
For “fructose (R)-3-hydroxybutyrate ester [KTX 0311]”, the “increases” value (441 mg/kg po, blood sampling 30, 120, 240 min vs vehicle baseline) was “significant increases”.
With “glucose (R)-3-hydroxybutyrate ester [KTX 0310]” the “increases” value (440 mg/kg po, blood sampling 30, 120, 240 min vs vehicle) was “did not evoke significant ketogenesis”.
For “sorbitol 3-hydroxybutyrate tri-ester [KTX 0313]”, the “increases” value (300 mg/kg po, blood sampling 30, 120, 240 min vs vehicle baseline) was “significant increases”.
